Reference: patent publication US9771372B2, “Compounds useful as S100-inhibitors” (Active Biotech AB, priority 2014, dated 2017)

Molecular target: T1, interaction between biotinylated human S100A9 and human RAGE-Fc (Homo sapiens, UniProt P06702)
T1 construct: made in house; host or cells: E. coli BL21(DE3)/pET1120 (pLR757)
T1 sequence (P06702 1-114): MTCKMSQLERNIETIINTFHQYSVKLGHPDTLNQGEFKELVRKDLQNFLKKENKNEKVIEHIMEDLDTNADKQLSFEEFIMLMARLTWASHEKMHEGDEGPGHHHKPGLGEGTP
Assay: AlphaScreen inhibition assay, Biot-hS100A9:hRAGE-Fc (S100A9-RAGE inhibition assay)
Type: binding
Details: biot-hS100A9 and rhRAGE-Fc, Ca2+ and Zn2+ in buffer
From the text: FIG. 1 is a schematic representation of an assay of the inhibition of the interaction between biotinylated human S100A9 and human RAGE-Fc using a small molecule S100A9 binder.
Inhibition Assay, Biot-hS100A9:hRAGE-Fc
The AlphaScreen (Amplified Luminescent Proximity Homogeneous Assay) contains two types of beads, Alpha Donor beads and Acceptor beads (PerkinElmer). Upon laser excitation at 680 nm a photosensitizer in the Donor bead converts ambient oxygen to a more excited singlet state. The singlet oxygen molecule diffuses (maximum 200 nm) to react with a thioxene derivative in the Acceptor bead and generates a chemiluminescence reaction. Fluorophores in the Acceptor bead subsequently emit light at 520-620 nm which can be detected in the EnVision® Multilabel plate Reader (PerkinElmer). The beads are light sensitive and all work with the beads is performed under subdued light conditions or using green filters on light sources (Roscolux Chroma Green #389, Rosco).
In the AlphaScreen Inhibition Assay described here, protein A (Staphylococcus aureus) conjugated Acceptor beads are used together with streptavidin coated Donor beads (Perkin Elmer 6760617M). The Acceptor beads are pre-incubated with Fc-tagged recombinant human RAGE (rhRAGE-Fc) allowing binding of the rhRAGE-Fc to protein A on the beads. Biotinylated human S100A9 (biot-hS100A9) is pre-incubated with the low molecular test compounds. The pre-mixes are then added to the wells of a micro-plate and incubated allowing interaction between biot-hS100A9 and rhRAGE-Fc. Subsequent addition of streptavidin coated Donor beads causes binding of the streptavidin to the biotinylated hS100A9. After an additional incubation the signal is measured.
Without inhibitory compounds, the interaction of biot-hS100A9 to rhRAGE-Fc will bring the Acceptor and Donor beads in close proximity thus generating a high signal. With an inhibitor present the complex will not form resulting in a decreased signal.
The AlphaScreen assay method is used for screening of the inhibitory effect of different compound samples at fixed concentrations or for IC50 determination by varying the compound concentrations. Samples of test compounds and references are prepared from solutions in DMSO. Relevant reference inhibitors and DMSO are used as controls for defined inhibition and non-inhibition, respectively in the assay. The percent inhibition in assay for test compounds and references are calculated by comparing their obtained assay signals with the signal values for the control with only DMSO (no compound).
Assay concentration of biotinylated hS100A9 and rhRAGE-Fc are batch dependent, and are determined and defined by separate cross-titration experiments using this AlphaScreen inhibition method to verify the optimal setup regarding signal strength and achievement of a defined inhibition with relevant reference compounds. The Final assay concentrations of Acceptor and Donor beads are 20 μg/mL.
Assay buffer is prepared by adding CaCl2 and ZnCl2 to HBS-P and is used freshly prepared in the experiment.
Biotin-hS100A9 solution for the experiment is prepared by dilution of appropriate amount of stock solution biot-hS100A9 in assay buffer (with CaCl2 and ZnCl2) and incubation in room temperature for 30 minutes.
rhRAGE-Fc solution for the experiment is prepared by dilution appropriate amount of rhRAGE-Fc stock in assay buffer.
Protein A Acceptor beads are diluted in assay buffer and are added to an equal volume of the prepared diluted rhRAGE-Fc solution. The beads are light sensitive. The vial is covered with aluminum foil and incubated at room temperature in the dark until biot-hS100A9+compound incubation is finished (see below).
Streptavidin-coated Donor beads are diluted in assay buffer. The beads are very light sensitive. The vial is covered with aluminum foil and incubated at room temperature in the dark until use (see below).
Samples of test compounds, appropriate references and DMSO control are diluted in assay buffer. […]

SMILES | IC50 [nM]
CC(=O)c1cc(Cl)cc2c1nc1n2C(NC(=O)CCC2CCCC2)(C(F)(F)F)C(=O)N1 (stereo not drawn) [Example 182, N-[9-acetyl-11-chloro-4-oxo-3-(trifluoromethyl)-2,5,7-triazatricyclo[6.4.0.0^2,6]dodeca-1(12),6,8,10-tetraen-3-yl]-3-cyclopentylpropanamide] | 1120
Cc1cc2nc3n(c2cc1C)C(NC(=O)[C@@H](C)Oc1cccc(Cl)c1)(C(F)(F)F)C(=O)N3 (single isomer, unassigned) [Example 212a] | 610
CC(=O)c1cccc2c1nc1n2C(NC(=O)CCC2CCCC2)(C(F)(F)F)C(=O)N1 (single isomer, unassigned) [Example 224a, N-[9-acetyl-4-oxo-3-(trifluoromethyl)-2,5,7-triazatricyclo[6.4.0.0^2,6]dodeca-1(12),6,8,10-tetraen-3-yl]-3-cyclopentylpropanamide] | 880
CC(=O)N1CC(C(=O)NC2(C(F)(F)F)C(=O)Nc3nc4cc(Cl)c(Cl)cc4n32)C1 (stereo not drawn) [Example 49, 1-acetyl-N-[10,11-dichloro-4-oxo-3-(trifluoromethyl)-2,5,7-triazatricyclo-[6.4.0.0^2,6]-dodeca-1(12),6,8,10-tetraen-3-yl]azetidine-3-carboxamide] | 3900
Cc1cc2nc3n(c2cc1C)C(NC(=O)CCc1ccccc1)(C(F)(F)F)C(=O)N3 (stereo not drawn) [Example 15, N-[10,11-dimethyl-4-oxo-3-(trifluoromethyl)-2,5,7-triazatricyclo[6.4.0.0^2,6]dodeca-1(8),6,9,11-tetraen-3-yl]-3-phenylpropanamide] | 1400
COC[C@H](C)Nc1cccc(C(=O)NC2(C(F)(F)F)C(=O)Nc3nc4c(C#N)c(Cl)ccc4n32)n1 (mixture of isomers) [Example 140, N-[10-chloro-9-cyano-4-oxo-3-(trifluoromethyl)-2,5,7-triaza-tricyclo[6.4.0.0^2,6]dodeca-1(8),6,9,11-tetraen-3-yl]-6-{[(2S)-1-methoxypropan-2-yl]amino}-pyridine-2-carboxamide] | 1450
O=C(CCC1CCCC1)NC1(C(F)(F)F)C(=O)Nc2nc3c(NS(=O)(=O)C4CC4)cccc3n21 (stereo not drawn) [Example 165, 3-cyclopentyl-N-[9-cyclopropanesulfonamido-4-oxo-3-(trifluoromethyl)-2,5,7-triazatricyclo[6.4.0.0^2,6]dodeca-1(12),6,8,10-tetraen-3-yl]propanamide] | 1430
O=C(CCC1CCCC1)NC1(C(F)(F)F)C(=O)Nc2nc3c(OC(F)(F)F)cccc3n21 (stereo not drawn) [Example 164, 3-cyclopentyl-N-[4-oxo-9-(trifluoromethoxy)-3-(trifluoromethyl)-2,5,7-triazatricyclo[6.4.0.0^2,6]dodeca-1(12),6,8,10-tetraen-3-yl]propanamide] | 1470
Cc1cc2nc3n(c2cc1C)C(NC(=O)[C@@H](C)Oc1cccc(Cl)c1)(C(F)(F)F)C(=O)N3 (single isomer, unassigned) [Example 212b] | 4580
Cc1cc2nc3n(c2cc1C)C(NC(=O)[C@@H](C)c1ccccc1)(C(F)(F)F)C(=O)N3 (single isomer, unassigned) [Example 144] | 6410
Cc1cc2nc3n(c2cc1C)C(NC(=O)c1ccccc1)(C(F)(F)F)C(=O)N3 (stereo not drawn) [Example 14, N-[10,11-dimethyl-4-oxo-3-(trifluoromethyl)-2,5,7-triazatricyclo[6.4.0.0^2,6]dodeca-1(8),6,9,11-tetraen-3-yl]benzamide] | 3500
CC(C)CC(=O)N1CCC(C(=O)NC2(C(F)(F)F)C(=O)Nc3nc4cc(Cl)c(Cl)cc4n32)CC1 (stereo not drawn) [Example 45, N-[10,11-dichloro-4-oxo-3-(trifluoromethyl)-2,5,7-triazatricyclo[6.4.0.0^2,6]dodeca-1(12),6,8,10-tetraen-3-yl]-1-(3-methylbutanoyl)piperidine-4-carboxamide] | 3000
